For test [1], the system named is Plasmopara viticola (downy mildew). Nature of the test: Foliar spray fungicide test, Plasmopara viticola (downy mildew) on grape. The conditions noted are these: for pest or weed control at 400 µg/mL: Plasmopara viticola, foliar, read-out: PLASVI disease control.
Description: The test compounds were formulated for application by dissolving 50 mg of the compound into 1.25 ml of solvent. The solvent was prepared by mixing 50 ml of "Tween 20" (polyoxyethylene (20) sorbitan monolaurate emulsifier) with 475 ml of acetone and 475 ml of ethanol. The solvent/compound solution was diluted to 125 ml with deionized water. The resulting formulation contains 400 ppm test chemical. Lower concentrations were obtained by serial dilution with the solvent-surfactant mixture.
The formulated test compounds were applied by foliar spray.
The formulated technical compounds were sprayed on all foliar surfaces of the host plants to past run-off. Single pots of each host plant were placed on raised, revolving pedestals in a fume hood. Test solutions were sprayed on all foliar surfaces. All treatments were allowed to dry and the plants were inoculated with the appropriate pathogens within 24 hours.
The effectiveness of test compounds in controlling disease was rated using the following scale.
Test [2] has as its system Leptosphaeria nodorum (glume blotch). Nature of the test: Foliar spray fungicide test, Leptosphaeria nodorum (glume blotch) on wheat. The conditions noted are these: Parastagonospora nodorum, in Triticum aestivum, foliar, read-out: LETPNO disease control, host wheat, 400 ppm (+++: 100 ppm).
For test [3], the system named is Pyricularia oryzae (rice blast). The test can be described thus: whole plant or invertebrate. Format: in vivo. The conditions noted are these: Pyricularia oryzae, foliar, read-out: PYRIOR disease control, host rice; foliar spray; 400 ppm (+++: 100 ppm).
For test [4], the system named is Erysiphe graminis tritici (powdery mildew). Nature of the test: Foliar spray fungicide test, Erysiphe graminis tritici (powdery mildew) on wheat. Particulars: Blumeria graminis, in Triticum aestivum, foliar, read-out: ERYSGT disease control, host wheat, 400 ppm (+++: 100 ppm).
The test system of test [5] is Puccinia recondita tritici (leaf rust). Nature of the test: Foliar spray fungicide test, Puccinia recondita tritici (leaf rust) on wheat. The conditions noted are these: Puccinia recondita, in Triticum aestivum, foliar, read-out: PUCCRT disease control, host wheat, 400 ppm (+++: 100 ppm).

The structures appear in SMILES notation.

As for `Clc1cnc(Oc2ccc(CCOc3ncnc4ccccc34)cc2)nc1` [Compound 47], the pest or weed control at 400 µg/mL in test [1] was in the range of 20 to 89%; in test [2], 0 to 19%; in test [3] it was 20 to 89%; in test [4], 90 to 100%.

As for `FC(F)(F)c1ccc(Oc2ccc(CCOc3ncnc4ncccc34)cc2)nc1` [Compound 30], the pest or weed control at 400 µg/mL in test [5] was in the range of 90 to 100%; in test [1] it was 90 to 100%; in test [2], 0 to 19%; in test [3], 90 to 100%; in test [4], 90 to 100%.

Take `Clc1ccc(Oc2ccc(CCOc3ncnc4ccccc34)cc2)nn1` [Compound 49]: the pest or weed control at 400 µg/mL in test [5] was in the range of 20 to 89%; in test [1], 90 to 100%; in test [2], 0 to 19%; in test [3], 0 to 19%; in test [4] it was 20 to 89%.

Take `N#Cc1cccnc1Oc1ccc(CCOc2ncnc3c(F)cccc23)cc1` [Compound 3]: the pest or weed control at 400 µg/mL is 20 to 89% in test [5]; 90 to 100% in test [1]; 20 to 89% in test [2]; 20 to 89% in test [3]; 20 to 89% in test [4].

Consider `FC(F)(F)c1ccc(Oc2ccc(CCNc3ncnc4cccnc34)cc2)nc1` [Compound 32], for which the pest or weed control at 400 µg/mL in test [5], in test [1], in test [2], in test [3] and in test [4] was 90 to 100% in each case.

For `Brc1cnc(Oc2ccc(CCOc3ncnc4ccccc34)cc2)nc1` [Compound 46], the pest or weed control at 400 µg/mL in test [5] was 20 to 89%; in test [1], 0 to 19%; in test [2], 20 to 89%; in test [3] it was 0 to 19%; in test [4] it was 20 to 89%.

Take `FC(F)(F)c1cnc(Oc2ccc(CCNc3ncnc4cccnc34)cc2)c(Cl)c1` [Compound 2]: the pest or weed control at 400 µg/mL in test [5] lay in the range of 90 to 100%; in test [1] it was 90 to 100%; in test [2], 20 to 89%; in test [3], 90 to 100%; in test [4] it was 90 to 100%.

In the case of `Fc1cccc2c(NCCc3ccc(Oc4cc(C(F)(F)F)ccn4)cc3)ncnc12` [Compound 14], the pest or weed control at 400 µg/mL in test [5] was in the range of 90 to 100%; in test [1], 90 to 100%; in test [2], 20 to 89%; in test [3], 90 to 100%; in test [4] it was 90 to 100%.

On to `FC(F)(F)c1ccc(Oc2ccc(CCNc3ncnc4ncccc34)cc2)nc1` [Compound 31], for which the pest or weed control at 400 µg/mL is 90 to 100% in test [5]; 90 to 100% in test [1]; 20 to 89% in test [2]; 20 to 89% in test [3]; 20 to 89% in test [4].

For `Fc1cccc2c(NCCc3ccc(Oc4ncccc4C(F)(F)F)cc3)ncnc12` [Compound 11], the pest or weed control at 400 µg/mL in test [5], in test [2], in test [3] and in test [4] was 90 to 100% throughout. Further, in test [1] (host grape, foliar spray, 400 ppm (+++: 100 ppm)), the PLASVI disease control result is listed as “+ ++”.

With `Fc1cccc2c(NCCc3ccc(Oc4cccc(C(F)(F)F)n4)cc3)ccnc12` [Compound 40, 8-Fluoro-4-(2-(4-(6-(trifluoromethyl)-2-pyridinyloxy)phenyl)ethylamino)quinoline], the pest or weed control at 400 µg/mL in test [5] was 90 to 100%; in test [1] it was 90 to 100%; in test [2], 20 to 89%; in test [3], 20 to 89%; in test [4], 90 to 100%.

For the molecule `Fc1cccc2c(NCCc3ccc(Oc4cccc(C(F)(F)F)n4)cc3)ncnc12` [Compound 37], the pest or weed control at 400 µg/mL lay within 90 to 100% in test [5]; 90 to 100% in test [1]; 90 to 100% in test [2]; 20 to 89% in test [3]; 90 to 100% in test [4].

As to `O=[N+]([O-])c1cccnc1Oc1ccc(CCOc2ncnc3c(F)cccc23)cc1` [Compound 8], the pest or weed control at 400 µg/mL in test [5] fell in the range of 20 to 89%; in test [1], 90 to 100%; in test [2] it was 20 to 89%; in test [3] it was 20 to 89%; in test [4] it was 90 to 100%.

Take `O=[N+]([O-])c1cccnc1Oc1ccc(CCOc2ncnc3cccc(F)c23)cc1` [Compound 9]: the pest or weed control at 400 µg/mL was 0 to 19% in test [5]; 90 to 100% in test [1]; 0 to 19% in test [2]; 0 to 19% in test [3]; 0 to 19% in test [4].

As for `Fc1cccc2c(OCCc3ccc(Oc4ncccc4C(F)(F)F)cc3)ncnc12` [Compound 10], the pest or weed control at 400 µg/mL in test [5], in test [1], in test [2], in test [3] and in test [4] was 90 to 100% each time.

Turning to `Fc1cccc2c(OCCc3ccc(Oc4cccc(C(F)(F)F)n4)cc3)ncnc12` [Compound 36], the pest or weed control at 400 µg/mL in test [5] is 90 to 100%; in test [1], 90 to 100%; in test [2], 20 to 89%; in test [3], 90 to 100%; in test [4], 90 to 100%.

For the molecule `Fc1cccc2c(OCCc3ccc(Oc4ncc(Cl)cn4)cc3)ccnc12` [Compound 48], the pest or weed control at 400 µg/mL in test [1] lay in the range of 20 to 89%; in test [2] it was 0 to 19%; in test [3], 0 to 19%; in test [4], 20 to 89%.

For `Fc1cccc2c(OCCc3ccc(Oc4ccc(Cl)cn4)cc3)ncnc12` [Compound 17], the pest or weed control at 400 µg/mL lay in the range of 90 to 100% in test [5]; 90 to 100% in test [1]; 20 to 89% in test [2]; 90 to 100% in test [3]; 90 to 100% in test [4].

Consider `Fc1cccc2c(OCCc3ccc(Oc4cccc(OCC(F)(F)F)n4)cc3)ncnc12` [Compound 33], for which the pest or weed control at 400 µg/mL was 90 to 100% in test [5]; 90 to 100% in test [1]; 0 to 19% in test [2]; 20 to 89% in test [3]; 90 to 100% in test [4].

Consider `O=[N+]([O-])c1ccc(Oc2ccc(CCNc3ncnc4c(F)cccc34)cc2)nc1` [Compound 24], for which the pest or weed control at 400 µg/mL was 20 to 89% in test [5]; 90 to 100% in test [1]; 20 to 89% in test [2]; 20 to 89% in test [3]; 0 to 19% in test [4].

Turning to `N#Cc1cccnc1Oc1ccc(CCOc2ncnc3cccc(F)c23)cc1` [Compound 4], the pest or weed control at 400 µg/mL fell in the range of 0 to 19% in test [5]; 20 to 89% in test [1]; 0 to 19% in test [2]; 0 to 19% in test [3]; 20 to 89% in test [4].

Values taken from patent US5326766A, “4-(2-(4-(2-pyridinyloxy)phenyl)ethoxy)quinazoline and analogues thereof” (priority 1992, dated 1994).
